Where two headings read alike, the source gives them in different places.
Legend:
uOR [1] = molecular target: T1, uOR (Mus musculus, UniProt P42866); test: Agonist induced ERK 1/2 phosphorylation (efficacy and potency relative to DAMGO)
uOR [2] = molecular target: T1, uOR; test: β-arrestin recruitment to uOR / receptor internalization; assay type: cell-based; set-up: expressed in transfected cells
Excerpt: The data provided in Tables 1A and 1B below were obtained using standard analytical techniques known to those skilled in the art. Such techniques are described in detail in C.
[…] were transiently transfected (electroporation) with combinations of cDNA for hemagglutinin (HA-N terminus)-tagged uOR, beta-arrestin2 tagged with green fluorescent protein, mouse uOR tagged at the C terminus with yellow fluorescent protein and GRK-2. […] After addition of drug, cells were visualized using confocal microscopy. Multiple cells were recorded per dish after more than four separate transfection experiments—representative cells are shown in the manuscript.
The “β-arrestin Recruitment EC50±SEM” column in Table 2 below represents the degree to which each tested compound recruited beta-arrestin to interact with uOR. As will be appreciated by those skilled in the art, EC50 refers to the concentration of a drug which induces a response halfway between the baseline and maximum after a specified exposure time. In this instance, lower values indicate greater potency of the molecule, and this is […].
As will also be understood by those skilled in the art, “Max Fold Efficacy” refers to the maximum signal/background ratio that an agonist will induce or, conversely, that an antagonist will inhibit an agonist from inducing a response. In Table 2 below, the “Max Fold Efficacy” column indicates the strength of the signal increase over the control/background measurement for uOR receptor internalization at the E.C. 50.

[3] = recruitment of beta-arrestin to interact with uOR, bound given in μM, read-out: β-arrestin Recruitment EC50 ± SEM
[4] = maximum signal/background ratio for uOR receptor internalization at the EC50

T1 sequence (P42866 whole entry): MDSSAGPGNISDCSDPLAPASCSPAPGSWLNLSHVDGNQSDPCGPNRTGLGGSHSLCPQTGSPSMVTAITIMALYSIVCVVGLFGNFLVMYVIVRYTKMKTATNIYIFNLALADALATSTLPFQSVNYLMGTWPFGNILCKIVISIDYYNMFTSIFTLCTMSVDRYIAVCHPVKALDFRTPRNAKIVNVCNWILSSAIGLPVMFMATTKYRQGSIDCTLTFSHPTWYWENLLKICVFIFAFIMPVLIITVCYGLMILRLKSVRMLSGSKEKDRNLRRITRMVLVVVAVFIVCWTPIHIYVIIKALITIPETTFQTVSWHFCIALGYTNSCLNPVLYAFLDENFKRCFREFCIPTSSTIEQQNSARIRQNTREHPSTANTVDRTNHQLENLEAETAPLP

Compound	EC50 (uOR [1])	EC50 (uOR [2]; [3])	Max Fold Efficacy (uOR [2]; [4])	Max Fold Efficacy (uOR [2])	EC50 (uOR [2])
COC(=O)[C@@H]1C[C@H](OC(=O)Nc2ccc(Cl)c(Cl)c2)C(=O)[C@H]2[C@@]1(C)CC[C@H]1C(=O)O[C@H](c3ccoc3)C[C@]21C	1850 nM	> 10 µM	–	–	–
COC(=O)[C@@H]1C[C@H](OC(=O)Nc2ccccc2)C(=O)[C@H]2[C@@]1(C)CC[C@H]1C(=O)O[C@H](c3ccoc3)C[C@]21C	1200 nM	> 10 µM	–	–	–
COC(=O)[C@@H]1C[C@H](OC(=O)Nc2cnc(C)nc2)C(=O)[C@H]2[C@@]1(C)CC[C@H]1C(=O)O[C@H](c3ccoc3)C[C@]21C [Formula Ic-iv]	79.1 nM	> 10 µM	2.8	–	–
COC(=O)[C@@H]1C[C@H](OC(=O)Nc2cnc(C)cn2)C(=O)[C@H]2[C@@]1(C)CC[C@H]1C(=O)O[C@H](c3ccoc3)C[C@]21C [Formula Ic-iii]	35.7 nM	> 10 µM	9.5	–	–
Met-Enkephalin [reference compound]	–	–	–	38.3	–
COC(=O)[C@@H]1C[C@H](OC(=O)Nc2ccc(SC(F)(F)F)cc2)C(=O)[C@H]2[C@@]1(C)CC[C@H]1C(=O)O[C@H](c3ccoc3)C[C@]21C	2300 nM	> 10 µM	–	–	–
COC(=O)[C@@H]1C[C@H](OC(=O)Nc2ccc(C(F)(F)F)cc2)C(=O)[C@H]2[C@@]1(C)CC[C@H]1C(=O)O[C@H](c3ccoc3)C[C@]21C [Formula Ia-vi]	327 nM	> 10 µM	5.1	–	–
COC(=O)[C@@H]1C[C@H](NC(=O)NS(=O)(=O)c2ccc(Cl)cc2)C(=O)[C@H]2[C@@]1(C)CC[C@H]1C(=O)O[C@H](c3ccoc3)C[C@]21C	> 10000 nM	> 10 µM	–	–	–
COC(=O)[C@@H]1C[C@H](OC(=O)Nc2ccc(OC(F)F)cc2)C(=O)[C@H]2[C@@]1(C)CC[C@H]1C(=O)O[C@H](c3ccoc3)C[C@]21C [Formula Ia-v]	162 nM	> 10 µM	9.5	–	–
COC(=O)[C@@H]1C[C@H](OC(=O)c2ccccc2)C(=O)[C@H]2[C@@]1(C)CC[C@H]1C(=O)O[C@H](c3ccoc3)C[C@]21C	1110 nM	> 10 µM	2.4	–	–
CCc1ncc(NC(=O)O[C@H]2C[C@@H](C(=O)OC)[C@]3(C)CC[C@H]4C(=O)O[C@H](c5ccoc5)C[C@]4(C)[C@H]3C2=O)cn1	7460 nM	> 10 µM	–	–	–
COC(=O)[C@@H]1C[C@H](OC(=O)Nc2ccc(F)c(F)c2)C(=O)[C@H]2[C@@]1(C)CC[C@H]1C(=O)O[C@H](c3ccoc3)C[C@]21C [Formula Ia-vii]	412 nM	> 10 µM	2.2	–	–
COC(=O)[C@@H]1C[C@H](OC(=O)Nc2ncc(C)s2)C(=O)[C@H]2[C@@]1(C)CC[C@H]1C(=O)O[C@H](c3ccoc3)C[C@]21C	1280 nM	> 10 µM	–	–	–
COC(=O)[C@@H]1C[C@H](OC(=O)c2nc(C)co2)C(=O)[C@H]2[C@@]1(C)CC[C@H]1C(=O)O[C@H](c3ccoc3)C[C@]21C	5990 nM	> 10 µM	–	–	–
COC(=O)[C@@H]1C[C@H](OC(=O)c2cnc(C)cn2)C(=O)[C@H]2[C@@]1(C)CC[C@H]1C(=O)O[C@H](c3ccoc3)C[C@]21C	1280 nM	> 10 µM	1.8	–	–
COC(=O)[C@@H]1C[C@H](OC(=O)c2ccc(C(F)(F)F)cc2)C(=O)[C@H]2[C@@]1(C)CC[C@H]1C(=O)O[C@H](c3ccoc3)C[C@]21C	930 nM	> 10 µM	–	–	–
COC(=O)[C@@H]1C[C@H](OC(=O)c2cnc(C)nc2)C(=O)[C@H]2[C@@]1(C)CC[C@H]1C(=O)O[C@H](c3ccoc3)C[C@]21C [Formula Id-i]	2.85 nM	> 10 µM	4.2	–	–
COC(=O)[C@@H]1C[C@H](OC(=O)Nc2cc(C)on2)C(=O)[C@H]2[C@@]1(C)CC[C@H]1C(=O)O[C@H](c3ccoc3)C[C@]21C [Formula Ic-v]	118 nM	> 10 µM	2.4	–	–

Compound	EC50 (uOR [1])	EC50 (uOR [2]; [3])	Max Fold Efficacy (uOR [2]; [4])	Max Fold Efficacy (uOR [2])	EC50 (uOR [2])
COC(=O)[C@@H]1C[C@H](OC(=O)Nc2ccc(Cl)cc2)C(=O)[C@H]2[C@@]1(C)CC[C@H]1C(=O)O[C@H](c3ccoc3)C[C@]21C [Formula Ia-iii]	146 nM	> 10 µM	7.6	–	–
COC(=O)[C@@H]1C[C@H](OC(=O)Nc2ccc(Cl)cc2F)C(=O)[C@H]2[C@@]1(C)CC[C@H]1C(=O)O[C@H](c3ccoc3)C[C@]21C [Formula Ia-viii]	522 nM	> 10 µM	2.3	–	–
COC(=O)[C@@H]1C[C@H](OC(=O)c2ccc(OC)cc2)C(=O)[C@H]2[C@@]1(C)CC[C@H]1C(=O)O[C@H](c3ccoc3)C[C@]21C	3500 nM	> 10 µM	3.1	–	–
CCc1ncc(C(=O)O[C@H]2C[C@@H](C(=O)OC)[C@]3(C)CC[C@H]4C(=O)O[C@H](c5ccoc5)C[C@]4(C)[C@H]3C2=O)cn1	917 nM	> 10 µM	5.1	–	–
COC(=O)[C@@H]1C[C@H](OC(=O)Nc2ccc(F)cc2)C(=O)[C@H]2[C@@]1(C)CC[C@H]1C(=O)O[C@H](c3ccoc3)C[C@]21C [Formula Ia-iv]	156 nM	> 10 µM	4.3	–	–
COC(=O)[C@@H]1C[C@H](OC(=O)Nc2nc(C)cs2)C(=O)[C@H]2[C@@]1(C)CC[C@H]1C(=O)O[C@H](c3ccoc3)C[C@]21C [Formula Ic-ii]	25.2 nM	> 10 µM	3.8	–	–
COC(=O)[C@@H]1C[C@H](NC(=O)Nc2ccc(C#N)cc2)C(=O)[C@H]2[C@@]1(C)CC[C@H]1C(=O)O[C@H](c3ccoc3)C[C@]21C	4290 nM	> 10 µM	–	–	–
COC(=O)[C@@H]1C[C@H](OC(=O)Nc2csc(C)n2)C(=O)[C@H]2[C@@]1(C)CC[C@H]1C(=O)O[C@H](c3ccoc3)C[C@]21C [Formula Ic-i]	0.854 nM	–	31.3	–	2.07 ± 0.649 µM
COC(=O)[C@@H]1C[C@H](OC(=O)NC(=O)c2ccccc2)C(=O)[C@H]2[C@@]1(C)CC[C@H]1C(=O)O[C@H](c3ccoc3)C[C@]21C [Formula Ib-ii]	633 nM	> 10 µM	4.8	–	–
COC(=O)[C@@H]1C[C@H](OC(=O)c2ccon2)C(=O)[C@H]2[C@@]1(C)CC[C@H]1C(=O)O[C@H](c3ccoc3)C[C@]21C	3780 nM	> 10 µM	1	–	–
COC(=O)[C@@H]1C[C@H](OC(=O)c2cc(C)cs2)C(=O)[C@H]2[C@@]1(C)CC[C@H]1C(=O)O[C@H](c3ccoc3)C[C@]21C [Formula Id-iii]	377 nM	> 10 µM	6.1	–	–
COC(=O)[C@@H]1C[C@H](NC(=O)NC(=O)c2ccccc2)C(=O)[C@H]2[C@@]1(C)CC[C@H]1C(=O)O[C@H](c3ccoc3)C[C@]21C [Formula Ib-i]	610 nM	> 10 µM	3.14	–	–
COC(=O)[C@@H]1C[C@H](OC(=O)c2ccc(Cl)nc2)C(=O)[C@H]2[C@@]1(C)CC[C@H]1C(=O)O[C@H](c3ccoc3)C[C@]21C [Formula Id-ii]	373 nM	> 10 µM	9.3	–	–
COC(=O)[C@@H]1C[C@H](OC(=O)Nc2ccc(C)cc2)C(=O)[C@H]2[C@@]1(C)CC[C@H]1C(=O)O[C@H](c3ccoc3)C[C@]21C [Formula Ia-ii]	108 nM	> 10 µM	8.8	–	–
COC(=O)[C@@H]1C[C@H](OC(=O)Nc2ccc(C#N)cc2)C(=O)[C@H]2[C@@]1(C)CC[C@H]1C(=O)O[C@H](c3ccoc3)C[C@]21C [Formula Ia-i]	35.5 nM	–	9.5	–	9.85 ± 0.153 µM
COC(=O)[C@@H]1C[C@H](OC(=O)c2ccc(F)cc2)C(=O)[C@H]2[C@@]1(C)CC[C@H]1C(=O)O[C@H](c3ccoc3)C[C@]21C	1640 nM	> 10 µM	2.2	–	–
COC(=O)[C@@H]1C[C@H](OC(=O)c2cc(C)on2)C(=O)[C@H]2[C@@]1(C)CC[C@H]1C(=O)O[C@H](c3ccoc3)C[C@]21C	1750 nM	> 10 µM	1.3	–	–
COC(=O)[C@@H]1C[C@H](NC(=O)c2ccccc2)C(=O)[C@H]2[C@@]1(C)CC[C@H]1C(=O)O[C@H](c3ccoc3)C[C@]21C	0.232 nM	–	21.73	–	9.19 ± 2.75 µM

From patent US10556889B1, “Salvinorin derivatives” (Blue Sky Pharmaceuticals, LLC, priority 2018, dated 2020)
